Reference: patent publication US20100310488A1, “SELECTING/IDENTIFYING AND ADMINISTERING ACTIVE AGENTS USEFUL FOR MODIFYING THE SHAPE OF KERATIN/HAIR FIBERS” (L'OREAL, priority 2007, published 2010)

Tested on: fibroblasts (dermal papilla, connective sheath, dermal)
Experiment: Assaying of sulfated glycosaminoglycans in fibroblast culture (Blyscan)
Format: cell-based, human
Conditions: 7 days
Protocol: The fibroblasts are cultured in DMEM medium, 10% foetal calf serum (Gibco, Invitrogen), 1 mM MEM pyruvate (Gibco, Invitrogen) and 25 units/ml of penicillin-streptomycin (Gibco, Invitrogen). The dermal papilla fibroblast (P6), connective sheath fibroblast (P6) and dermal fibroblast are then counted using a Coulter Counter Z2 (Beckman Coulter inc., Fullerton, USA) and seeded at 2×10^5 cells per well in a 12-well plate, with the wells containing 1.5 ml of medium alone, which is the “control” condition, or being treated with 3 mM of 1,5-anhydro-6,8-dideoxy-L-glucooctitol. After 7 days, the supernatant is recovered and stored at −80° C. until the GAGs are assayed. […]
The proteins present in the lysate are assayed using the Dc Protein assay kit (Biorad). The amount of glycosaminoglycans is measured in the supernatant and the lysate.
The glycosaminoglycans are assayed using the Blyscan glycosaminoglycan isolation & concentration kit (Biocolor, Newtownabbey, Northern Ireland) and the Blyscan sulfated glycosaminoglycan assay kit. […] Each sample to be measured is mixed with 700 μl of the cetylpyridinium chloride solution in a 1.5 ml centrifuge tube, and then incubated on a rotary mixer thermostated at 37° C., at 250 rpm, for 2 hours. […] The absorbance of the solution at 656 nm is measured using a polystyrene semi-microcuvette on a Biomate 5 spectrometer (Thermo). […]

CC(O)CC1OCC(O)C(O)C1O [1,5-anhydro-6,8-dideoxy-L-glucooctitol]
increase in amount of glycosaminoglycans secreted (relative to control (medium alone), 3 mM in method): up to 7 times
GAG synthesis by the fibroblasts (versus control (medium alone)): increase in GAG synthesis by the fibroblasts, proportional to the concentration
